Data on two compounds can be found in publication PMC5228037, “Discovery and Mechanistic Characterization of Selective Inhibitors of H2S-producing Enzyme: 3-Mercaptopyruvate Sulfurtransferase (3MST) Targeting Active-site Cysteine Persulfide” (Scientific Reports, 2017).

The target in data set [1] is T1, 3MST in cell lysate of 3MST-overexpressing HEK293 cells (Mus musculus, UniProt Q99J99).
T1 construct: expressed in transfected cells; host or cells: HEK293 (transient, 3MST/pCI)
T1 sequence (Q99J99 1-297): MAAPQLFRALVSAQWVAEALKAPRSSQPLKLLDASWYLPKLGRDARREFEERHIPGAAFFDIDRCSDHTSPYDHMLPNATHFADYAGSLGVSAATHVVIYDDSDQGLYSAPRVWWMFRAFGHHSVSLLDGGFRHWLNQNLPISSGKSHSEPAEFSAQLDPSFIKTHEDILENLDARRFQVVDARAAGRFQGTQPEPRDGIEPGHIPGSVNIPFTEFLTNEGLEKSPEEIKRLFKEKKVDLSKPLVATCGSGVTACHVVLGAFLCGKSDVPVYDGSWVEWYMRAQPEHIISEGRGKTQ
Put plainly: Inhibitory activity in lysate of m3MST-overexpressing HEK293 cells by gas chromatography. The format is biochemical. The conditions noted are these: 10 μM compound, 100 μM 3MP, 100 μM DTT, 37 °C 15 min. The procedure:
(§1) Figure 2 Selectivity assessment of hit compounds for 3MST over other H2S/polysulfides-producing enzymes and rhodanese. (a) 3MST-Inhibitory activity of hit compounds at 10 and 100 μM in cell lysate of 3MST-expressing HEK293 cells. 100 μM 3MP and 100 μM DTT were added to the solution containing 0.1% DMSO as a cosolvent, and the mixture was incubated at 37 °C for 15 min. H2S production was measured by gas chromatography. All data are presented as the mean ± S.D. (100 μM: n = 3 or 4; 10 μM: n = 3). (b) Selectivity assessment of hit compounds at 100 μM towards CBS and CSE. Only DMSO was added to the control sample instead of DMSO solution containing hit compounds. H2S production was monitored by gas chromatography. All data are presented as the mean (n = 3). (c) Detection method for rhodanese activity (Sörbo method). (d) Selectivity assessment of hit compounds towards rhodanese. The results are mean ± S.D. (n = 4, three times). These values were determined based upon the absorbance of [Fe(SCN)3] at 460 nm (Sӧrbo method). […] (e) Fluorescence confocal microscopic images of live COS7 cells transfected with 3MST or an empty vector[9] as a control. […] F/F0 was calculated by dividing the fluorescence intensity of cells after addition of 500 μM 3MP (10 min) by that of cells before addition of 500 μM 3MP (Pre), then the mean F/F0 was determined from 5 cells. […]

Data set [2] has as its target T2, 3MST-overexpressing COS7 cells (Mus musculus, UniProt Q99J99).
T2 construct: expressed in transfected cells; host or cells: COS7 (transient)
T2 sequence (Q99J99 1-297): T1 sequence (Q99J99 1-297)
Nature of the data set: Live-cell fluorescence imaging with SSP4 in 3MST-overexpressing COS7 cells. The data set is classed as cell-based. The method, then: as §1

A word on the inhibition: it is the drop in the measured response relative to a control, in per cent. High values mean a strong effect, low ones a weak effect.

In turn, `NC(=O)c1ccsc1NC(=O)CSc1nc2ccccc2c(=O)[nH]1` [compound 1] returned an inhibition at 10 µM in data set [1] of 80 to 90%.

`Cc1cc(=O)[nH]c(SCC(=O)c2cccc3ccccc23)n1` [compound 3] showed an inhibition at 10 µM in data set [1] of 80 to 90%. In data set [2] (1 μM compound, 3MST-overexpressing COS7 cells), the “3MST activity in living cells (SSP4 sulfane sulfur fluorescence after 500 μM 3MP)” value was “almost completely suppressed”. In addition, the Cell-membrane permeability entry in data set [2] (concluded from suppression of 3MST activity in live COS7 cells) was “cell-membrane permeable”.
